From ChEMBL document CHEMBL3044541, “Control of crown rot-causing fungal pathogens of banana by inorganic salts and a surfactant” (Crop Prot, 2007)
Active and inactive are the calls of the source. The calls are words filed in the database; no cut-off is given here.

Assays:
Colletotrichum musae [1] = assay: Antifungal activity against Colletotrichum musae assessed as inhibition of conidium germination at 5 g/l incubated for 15 min followed by compound washout measured after 2 days by microscopic analysis in absence of surfactant APSA 80; assay type: functional, organism-based
Lasiodiplodia theobromae [2] = assay: Growth inhibition of Lasiodiplodia theobromae assessed as concentration required for inhibition of mycelial growth incubated for 15 min followed by compound washout measured after 7 days in presence of surfactant APSA 80; assay type: functional
Thielaviopsis paradoxa [3] = assay: Antifungal activity against Ceratocystis paradoxa assessed as inhibition of conidium germination at 5 g/l incubated for 15 min followed by compound washout measured after 2 days by microscopic analysis in absence of surfactant APSA 80; assay type: functional, organism-based
Fusarium verticillioides [4] = assay: Antifungal activity against Fusarium verticillioides assessed as inhibition of conidium germination at 5 g/l incubated for 15 min followed by compound washout measured after 7 days by microscopic analysis in presence of surfactant APSA 80; assay type: functional, organism-based
Fusarium verticillioides [5] = assay: Growth inhibition of Fusarium verticillioides assessed as inhibition of mycelial growth up to 160 g/l incubated for 15 min followed by compound washout measured after 7 days in presence of surfactant APSA 80; assay type: functional, organism-based
Colletotrichum musae [6] = assay: Growth inhibition of Colletotrichum musae assessed as concentration required for inhibition of mycelial growth incubated for 15 min followed by compound washout measured after 7 days in presence of surfactant APSA 80; assay type: functional
Thielaviopsis paradoxa [7] = assay: Growth inhibition of Ceratocystis paradoxa assessed as inhibition of mycelial growth up to 160 g/l incubated for 15 min followed by compound washout measured after 7 days in absence of surfactant APSA 80; assay type: functional, organism-based
Lasiodiplodia theobromae [8] = assay: Antifungal activity against Lasiodiplodia theobromae assessed as inhibition of conidium germination at 5 g/l incubated for 15 min followed by compound washout measured after 7 days by microscopic analysis in presence of surfactant APSA 80; assay type: functional, organism-based
Lasiodiplodia theobromae [9] = assay: Growth inhibition of Lasiodiplodia theobromae assessed as inhibition of mycelial growth up to 160 g/l incubated for 15 min followed by compound washout measured after 7 days in absence of surfactant APSA 80; assay type: functional, organism-based
Colletotrichum musae [10] = assay: Antifungal activity against Colletotrichum musae assessed as inhibition of conidium germination at 5 g/l incubated for 15 min followed by compound washout measured after 7 days by microscopic analysis in presence of surfactant APSA 80; assay type: functional, organism-based
Lasiodiplodia theobromae [11] = assay: Antifungal activity against Lasiodiplodia theobromae assessed as inhibition of conidium germination at 5 g/l incubated for 15 min followed by compound washout measured after 2 days by microscopic analysis in absence of surfactant APSA 80; assay type: functional, organism-based
Thielaviopsis paradoxa [12] = assay: Antifungal activity against Ceratocystis paradoxa assessed as inhibition of conidium germination at 6 g/l incubated for 15 min followed by compound washout measured after 7 days by microscopic analysis in presence of surfactant APSA 80; assay type: functional, organism-based
Musa acuminata AAA Group [13] = assay: Phytotoxicity against Musa acuminata AAA Group (Cavendish banana) assessed as skin burn incubated for 15 min followed by compound washout measured after 1 to 3 weeks in presence of surfactant APSA 80 relative to control; assay type: organism-based; conditions: in vivo
Fusarium verticillioides [14] = assay: Antifungal activity against Fusarium verticillioides assessed as inhibition of conidium germination at 6 g/l incubated for 15 min followed by compound washout measured after 7 days by microscopic analysis in presence of surfactant APSA 80; assay type: functional, organism-based
Colletotrichum musae [15] = assay: Antifungal activity against Colletotrichum musae assessed as inhibition of conidium germination at 6 g/l incubated for 15 min followed by compound washout measured after 2 days by microscopic analysis in absence of surfactant APSA 80; assay type: functional, organism-based
Colletotrichum musae [16] = assay: Growth inhibition of Colletotrichum musae assessed as inhibition of mycelial growth up to 160 g/l incubated for 15 min followed by compound washout measured after 7 days in presence of surfactant APSA 80; assay type: functional, organism-based
Fusarium verticillioides [17] = assay: Antifungal activity against Fusarium verticillioides assessed as inhibition of conidium germination at 6 g/l incubated for 15 min followed by compound washout measured after 2 days by microscopic analysis in absence of surfactant APSA 80; assay type: functional, organism-based
Colletotrichum musae [18] = assay: Antifungal activity against Colletotrichum musae assessed as inhibition of conidium germination at 6 g/l incubated for 15 min followed by compound washout measured after 7 days by microscopic analysis in presence of surfactant APSA 80; assay type: functional, organism-based
Musa acuminata AAA Group [19] = assay: Phytotoxicity against Musa acuminata AAA Group (Cavendish banana) assessed as discoloration incubated for 15 min followed by compound washout measured after 1 to 3 weeks in presence of surfactant APSA 80 relative to control; assay type: organism-based; conditions: in vivo
Thielaviopsis paradoxa [20] = assay: Antifungal activity against Ceratocystis paradoxa assessed as inhibition of conidium germination at 6 g/l incubated for 15 min followed by compound washout measured after 2 days by microscopic analysis in absence of surfactant APSA 80; assay type: functional, organism-based
Lasiodiplodia theobromae [21] = assay: Antifungal activity against Lasiodiplodia theobromae assessed as inhibition of conidium germination at 6 g/l incubated for 15 min followed by compound washout measured after 2 days by microscopic analysis in absence of surfactant APSA 80; assay type: functional, organism-based
Lasiodiplodia theobromae [22] = assay: Antifungal activity against Lasiodiplodia theobromae assessed as inhibition of conidium germination at 6 g/l incubated for 15 min followed by compound washout measured after 7 days by microscopic analysis in presence of surfactant APSA 80; assay type: functional, organism-based
Lasiodiplodia theobromae [23] = assay: Growth inhibition of Lasiodiplodia theobromae assessed as inhibition of mycelial growth up to 160 g/l incubated for 15 min followed by compound washout measured after 7 days in presence of surfactant APSA 80; assay type: functional, organism-based
Lasiodiplodia theobromae [24] = assay: Growth inhibition of Lasiodiplodia theobromae assessed as concentration required for inhibition of mycelial growth incubated for 15 min followed by compound washout measured after 7 days in absence of surfactant APSA 80; assay type: functional
Fusarium verticillioides [25] = assay: Growth inhibition of Fusarium verticillioides assessed as concentration required for inhibition of mycelial growth incubated for 15 min followed by compound washout measured after 7 days in absence of surfactant APSA 80; assay type: functional
Colletotrichum musae [26] = assay: Growth inhibition of Colletotrichum musae assessed as concentration required for inhibition of mycelial growth incubated for 15 min followed by compound washout measured after 7 days in absence of surfactant APSA 80; assay type: functional

For `[Ca+2].[Cl-].[Cl-]` [CALCIUM CHLORIDE], the inhibition (Colletotrichum musae [1]) was “Active”, the Activity (Lasiodiplodia theobromae [2]) was 100 g/L and the inhibition (Thielaviopsis paradoxa [3]) was “Active”. The inhibition (Fusarium verticillioides [4]) was “Active”, the Activity (Fusarium verticillioides [5]) was “inactive” and the Activity (Colletotrichum musae [6]) was 140 g/L. The Activity (Thielaviopsis paradoxa [7]) was “inactive”, the inhibition (Lasiodiplodia theobromae [8]) was “Active” and the Activity (Lasiodiplodia theobromae [9]) was “inactive”. For the same compound, the inhibition (Colletotrichum musae [10]) was “Active” and the inhibition (Lasiodiplodia theobromae [11]) was “Active”.

For `[Cl-].[Na+]` [SODIUM CHLORIDE], the inhibition (Thielaviopsis paradoxa [12]) was “Active”, the Activity (Musa acuminata AAA Group [13]) was “Toxic” and the inhibition (Fusarium verticillioides [14]) was “Active”. The inhibition (Colletotrichum musae [15]) was “Active”, the Activity (Colletotrichum musae [16]) was “inactive” and the Activity (Fusarium verticillioides [5]) was “inactive”. The Activity (Thielaviopsis paradoxa [7]) was “inactive”, the Activity (Lasiodiplodia theobromae [9]) was “inactive” and the inhibition (Fusarium verticillioides [17]) was “Active”. For the same compound, the inhibition (Colletotrichum musae [18]) was “Active”, the Activity (Musa acuminata AAA Group [19]) was “Toxic” and the inhibition (Thielaviopsis paradoxa [20]) was “Active”. For the same compound, the inhibition (Lasiodiplodia theobromae [21]) was “Active”, the inhibition (Lasiodiplodia theobromae [22]) was “Active” and the Activity (Lasiodiplodia theobromae [23]) was “inactive”.

`[Na+].[O-]Cl` [SODIUM HYPOCHLORITE] was tested, and the inhibition (Colletotrichum musae [1]) was “Active”, the Activity (Lasiodiplodia theobromae [2]) was 20 g/L and the Activity (Musa acuminata AAA Group [13]) was “Toxic”. For the same compound, the inhibition (Thielaviopsis paradoxa [3]) was “Active”, the inhibition (Fusarium verticillioides [4]) was “Active” and the Activity (Lasiodiplodia theobromae [24]) was 20 g/L. The inhibition (Lasiodiplodia theobromae [8]) was “Active”, the inhibition (Colletotrichum musae [10]) was “Active” and the Activity (Fusarium verticillioides [25]) was 70 g/L. For the same compound, the inhibition (Lasiodiplodia theobromae [11]) was “Active”, the Activity (Musa acuminata AAA Group [19]) was “Toxic” and the Activity (Colletotrichum musae [26]) was 50 g/L.
